The values below come from patent US8853490B2 (priority 2010, dated 2014).

Read-outs that look alike come from different tables or passages of the source. Where only a bound is given, the exact number is not on record here.

In test [1] the test system is Fusarium graminearum (FGR; isolate 73B ISU). The test is classed as cell-based.
Test [2] shares this test system. The following applies: general statement on parent polypeptides; cited from earlier work.
The subject of test [3] is Diplodia maydis (DMA; isolate Warren-IN-96). Format: cell-based.
The test system is the same in test [4]. The following applies: general statement on parent polypeptides; cited from earlier work.
Test [5] has as its system Colletotrichum graminicola (CGR; isolate Carroll-IA-99). To be noted: general statement on parent polypeptides; cited from earlier work.
Test [6] deals with Fusarium verticillioides (FVE; isolate MO33). To be noted: general statement on parent polypeptides; cited from earlier work.
In test [7] the test system is Colletotrichum graminicola (CGR; isolate Carroll-IA-99). Format: cell-based.
For test [8], the system named is Fusarium verticillioides (FVE; isolate MO33). Format: cell-based.

As for “LB-5220 (ps 1B4): LBNL variant generated through gene shuffling of the LB-5220 mature peptide coding sequence (LKYTGTCTRKNNQCKYRGQNNRDTFVKCPTFANKRCTRDGAPCSFDSYSRAVTCD; Synthetic peptide LB-5220 (ps-1B4))”, the “In vitro antifungal activity (IC50) against F. graminearum (FGR)” value (from here on “In vitro antifungal activity (IC50) … (FGR)”) in test [1] (high salt conditions) is recorded as above 100 ppm; in test [1] (low salt conditions) it was above 10 ppm.

Regarding “LB-5220 (r2 5G7): LBNL variant generated through gene shuffling of the LB-5220 mature peptide coding sequence (LKYTGTCRRANNQCKYKGQNNRDTFVKCPTFANKKCTRDGAKCSFDSYSRAVTCD; Synthetic peptide LB-5220 (r2-5G7))”, the “In vitro antifungal activity (IC50) … (FGR)” value in test [1] (high salt conditions) is given as above 100 ppm; in test [1] (low salt conditions), above 10 ppm.

“LB-5220 (r2 6F2): LBNL variant generated through gene shuffling of the LB-5220 mature peptide coding sequence (LKYTGTCRRANNQCKYKGQNNRDTFVKCPTFANKKCTRDGEKCSFDSYSRAVTCD; LB-5220 (r2-6F2))”: the “In vitro antifungal activity (IC50) … (FGR)” value is listed as above 100 ppm in test [1] (high salt conditions) and above 10 ppm in test [1] (low salt conditions).

Consider “LB-5220: parent antifungal polypeptide isolated from Penicillium simplicissimum, previously disclosed in U.S. Pat. No. 7,306,946 (LKYTGTCTRANNQCKYKGQNDRDTFVKCPTFANKKCTRDGAPCSFDSYSRAVTCD; listed as Penicillium simplicissimum) [reference compound]”, for which the “antifungal activity against Fusarium graminearum (FGR), in words” value in test [2] is on record as “exhibit antifungal activity”. Also, the “In vitro antifungal activity (IC50) against D. maydis (DMA)” value was 50 ppm in test [3] (high salt conditions) and below 0.1 ppm in test [3] (low salt conditions). In addition, the “In vitro antifungal activity (IC50) … (FGR)” value in test [1] (high salt conditions) is given as above 100 ppm; in test [1] (low salt conditions), above 10 ppm. In addition, in test [4], the “antifungal activity against Diplodia maydis (DMA), in words” value is on record as “exhibit antifungal activity”. Besides, the “antifungal activity against Colletotrichum graminicola (CGR), in words” value in test [5] is on record as “exhibit antifungal activity”. Moreover, the “antifungal activity against Fusarium verticillioides (FVE), in words” value in test [6] is recorded as “exhibit antifungal activity”.

Consider “LB-9827-1: parent antifungal polypeptide from the fungus Monascus ruber, previously disclosed in U.S. Pat. No. 7,306,946 (LSKFGGECSLKHNTCTYLKGGKNHVVNCGSAANKKCKSDRHHCEYDEHHKRVDCQTPV; Monascus ruber) [reference compound]”, for which the “In vitro antifungal activity (IC50) against C. graminicola (CGR)” value in test [7] (high salt conditions) is 3 ppm; in test [7] (low salt conditions) it was 1.5 ppm. In test [2], the “antifungal activity against Fusarium graminearum (FGR), in words” value is “exhibit antifungal activity”. Moreover, the figures for the “In vitro antifungal activity (IC50) against D. maydis (DMA)” value in test [3] (high salt conditions) and in test [3] (low salt conditions) were 12 ppm and 1.5 ppm, respectively. In addition, the “In vitro antifungal activity (IC50) … (FGR)” value in test [1] (high salt conditions) is given as 1.5 ppm; in test [1] (low salt conditions) it was below 0.1 ppm. Moreover, in test [4], the “antifungal activity against Diplodia maydis (DMA), in words” value is “exhibit antifungal activity”. The “antifungal activity against Colletotrichum graminicola (CGR), in words” value in test [5] is “exhibit antifungal activity”. Besides, the “antifungal activity against Fusarium verticillioides (FVE), in words” value in test [6] was “exhibit antifungal activity”.

For “LB-9827-3A-11E4: LBNL variant generated through gene shuffling of the LB-9827-1 mature peptide coding sequence (LSKYGGECSRKHNTCTYKKGGKNQIVNCPTAANKRCKTDRHHCEYDEYHRRVDCQTPV; LB-9827-3A-11E4)”, the “In vitro antifungal activity (IC50) against F. verticillioides (FVE)” value (from here on “In vitro antifungal activity (IC50) … (FVE)”) in test [8] was determined as 15 ppm. In addition, the “In vitro antifungal activity (IC50) … (FGR)” value in test [1] (high salt conditions) is 0.63 ppm.

For the substance “LB-9827-3B-21E10: LBNL variant generated through gene shuffling of the LB-9827-1 mature peptide coding sequence (LSKYGGECSRAHNTCTYRKGGKNQVVNCPSAANKKCKSDRHHCEYDEYHKRVDCQTPV; Synthetic peptide LB-9827-3B-21E10)”, the “In vitro antifungal activity (IC50) … (FVE)” value in test [8] is recorded as 30 ppm. Also, the “In vitro antifungal activity (IC50) … (FGR)” value in test [1] (high salt conditions) is 1.25 ppm.

On to “LB-9827-3B-25F2: LBNL variant generated through gene shuffling of the LB-9827-1 mature peptide coding sequence (LSKYGGECSREHNTCTYLKGGKNQVVACGSAANKKCKRDRHHCEYDDYHKTVDCQTPV; Synthetic peptide LB-9827-3B-25F2)”, for which the “In vitro antifungal activity (IC50) … (FVE)” value in test [8] amounted to 15 ppm. The “In vitro antifungal activity (IC50) … (FGR)” value in test [1] (high salt conditions) came out at 2.5 ppm.

Regarding “LB-9827-3B-25G5: LBNL variant generated through gene shuffling of the LB-9827-1 mature peptide coding sequence (LSKYGGECSRAHNTCTYRKGGKNQVVKCGTAANKKCKSDRHHCEYDDYHKRVDCQTPV; Synthetic peptide LB-9827-3B-25G5)”, in test [8], the “In vitro antifungal activity (IC50) … (FVE)” value was 3.8 ppm. Moreover, in test [1] (high salt conditions), the “In vitro antifungal activity (IC50) … (FGR)” value is 2.5 ppm.
